Converted amounts (≈) assume the structure as drawn. The source made the active and inactive calls. The rule behind the calls is not given here.
Assays:
[1] = test system: MCF7; assay: Cytotoxicity against human MCF7 cells after 36 hrs by MTT assay; format: functional, cell-based; conditions: MCF7, 36 h
[2] = test system: U2OS; assay: Cytotoxicity against human U2OS cells after 36 hrs by MTT assay; format: functional, cell-based
[3] = test system: Lipaphis erysimi; assay: Insecticidal activity against Lipaphis erysimi Kaltenbach; format: functional
[4] = test system: P388; assay: Cytotoxicity against mouse P388 cells; format: functional; conditions: read-out: ED50 (the source's name)

| SMILES | IC50 [1] [µg/mL] | IC50 [2] [µg/mL] | Activity [3] | EC50 [4] [µg/mL] |
| --- | --- | --- | --- | --- |
| CC[C@H](CC[C@](C)(O)[C@H]1[C@@H](O)C[C@H]2[C@@H]3[C@H](O)C=C4C[C@@H](O)CC[C@]4(C)[C@H]3CC[C@@]21C)C(C)C | > 50 | 23.2 (≈ 50.1 µM) | inactive |  |
| C=C(C)C(CC[C@@H](C)[C@@H]1[C@@H](O)C[C@]2(C)C3=CC[C@H]4C(C)(C)CCC[C@]4(C)[C@H]3CC[C@@]12C)OO (mixture of isomers) [MELIASENIN K] | 2.4 | 7.2 | inactive |  |
| C[C@H](C/C=C/C(C)(C)OO)[C@@H]1[C@@H](O)C[C@]2(C)C3=CC[C@H]4C(C)(C)[C@@H](O)CC[C@]4(C)[C@H]3CC[C@@]12C (relative stereo) [MELIASENIN I] | 11.2 (≈ 23.6 µM) | 9.5 (≈ 20 µM) | inactive |  |
| CC(C)(/C=C/C[C@H]1C(=O)O[C@H]2C[C@]3(C)C4=CC[C@H]5C(C)(C)C(=O)CC[C@]5(C)[C@H]4CC[C@@]3(C)[C@@H]21)OO [MELIASENIN M] | 16.4 (≈ 33.8 µM) | 29.2 (≈ 60.2 µM) | inactive |  |
| C=C(C)[C@H](CC[C@H]1C(=O)O[C@H]2C[C@]3(C)C4=CC[C@H]5C(C)(C)C(=O)CC[C@]5(C)[C@H]4CC[C@@]3(C)[C@@H]21)OO [MELIASENIN N] | 3 (≈ 6.19 µM) | 8.8 (≈ 18.2 µM) | inactive |  |
| C[C@H](C/C=C/C(C)(C)OO)[C@@H]1[C@@H](O)C[C@]2(C)C3=CC[C@H]4C(C)(C)C(=O)CC[C@]4(C)[C@H]3CC[C@@]12C (relative stereo) [MELIASENIN J] | 1.1 (≈ 2.33 µM) | 14.3 (≈ 30.3 µM) | inactive |  |
| COC(=O)[C@H](CCC=C(C)C)[C@@H]1[C@@H](O)C[C@]2(C)C3=CC[C@H]4C(C)(C)C(=O)CC[C@]4(C)[C@H]3CC[C@@]12C [METHYL KULONATE] | 0.41 (≈ 0.846 µM) | 14.6 (≈ 30.1 µM) | inactive | 1.7 (≈ 3.51 µM) |
| CO[C@H]1O[C@@H]([C@@H]2OC2(C)C)C[C@H]1[C@@H]1CC[C@]2(C)C3=CC[C@H]4C(C)(C)[C@@H](O)CC[C@]4(C)[C@H]3CC[C@@]12C [MELIASENIN P] | 6.4 (≈ 13.1 µM) | 48.7 (≈ 100 µM) | inactive |  |
| C=C(C)C(O)CC[C@@H](C)[C@@H]1[C@@H](O)C[C@]2(C)C3=CC[C@H]4C(C)(C)C(=O)CC[C@]4(C)[C@H]3CC[C@@]12C (stereo partly specified) [MELIASTATIN 5] | 16 (≈ 35 µM) | 9.5 (≈ 20.8 µM) | inactive | 1.7 (≈ 3.72 µM) |
| O=c1[nH]cc(F)c(=O)[nH]1 [FLUOROURACIL] | 34 (≈ 261 µM) | 7.2 (≈ 55.4 µM) |  |  |
| CC(C)C(C)CC[C@](C)(O)[C@H]1[C@@H](O)C[C@H]2[C@@H]3[C@H](O)C=C4C[C@@H](O)CC[C@]4(C)[C@H]3CC[C@@]21C (single isomer, unassigned) | 47.4 (≈ 106 µM) | 9.4 (≈ 20.9 µM) | inactive |  |
| C=C(C)[C@@H](CC[C@H]1C(=O)O[C@H]2C[C@]3(C)C4=CC[C@H]5C(C)(C)C(=O)CC[C@]5(C)[C@H]4CC[C@@]3(C)[C@@H]21)OO [MELIASENIN O] | 2.3 (≈ 4.75 µM) | 23.9 (≈ 49.3 µM) | inactive |  |
| C=C(C)C(CC[C@@H](C)[C@@H]1[C@@H](O)C[C@]2(C)C3=CC[C@H]4C(C)(C)C(=O)CC[C@]4(C)[C@H]3CC[C@@]12C)OO (mixture of isomers) [MELIASENIN L] | 9.8 | 9.5 | inactive |  |
| CC(C)=CCC[C@@H](C)[C@@H]1[C@@H](O)C[C@]2(C)C3=CC[C@H]4C(C)(C)C(=O)CC[C@]4(C)[C@H]3CC[C@@]12C [KULINONE] | 42.5 (≈ 96.4 µM) | 6.9 (≈ 15.7 µM) | inactive | 1.7 (≈ 3.86 µM) |
| COC(=O)[C@H](C/C=C/C(C)(C)OO)[C@@H]1[C@@H](O)C[C@]2(C)C3=CC[C@H]4C(C)(C)C(=O)CC[C@]4(C)[C@H]3CC[C@@]12C [MELIASTATIN 3] | 48.6 (≈ 94.1 µM) | 31.1 (≈ 60.2 µM) | inactive | 1.7 (≈ 3.29 µM) |
| CCCCCCCCCCCCCCCC(=O)O[C@H]1CC[C@]2(C)[C@H]3CC[C@@]4(C)[C@H]([C@@H]5C[C@H]([C@H](O)C(C)(C)O)O[C@@H]5OC)CC[C@]4(C)C3=CC[C@H]2C1(C)C [MELIASENIN Q] | > 50 | 3.9 (≈ 5.25 µM) | inactive |  |
